We go through one compound from patent US6897316B2, “Substituted 2-phenyl-4-quinolone-3-carboxylic acid compounds and their use as antitumor agents” (China Medical University, priority 2003, dated 2005).

Values after ≈ are worked out from the molar mass of the structure shown.

The GI50 is the concentration at which growth is held to half of that of the control. Lower therefore signals more potent growth inhibition.

The test system of one test is bone (HOS) cell line. Nature of the test: Activity against HTCL replication, HOS. In kind it is cell-based, human. Conditions: mean ED50. The method, then: Compounds were assayed for in vitro cytotoxicity in a panel of human tumor cell lines at the School of Pharmacy, University of North Carolina at Chapel Hill, according to procedures described previously [Lee, K. H., Lin, Y. M., Wu, T. S., Zhang, D. C., Yamagishi, T., Hayashi, T., Hall, I. H., Chang, J. J., Wu, R. Y., Yang, T. H. The cytotoxic principles of Prunella vulgaris, Psychotria serpens, and Hyptis capitata: Ursolic acid and related derivatives. Planta Med. 1988, 54, 308-11; Boyd, M. R. Status of the National Cancer Institute preclinical antitumor drug discovery screen: implications for selection of new agents for clinical trial. Devita, V. T., Jr. Hellman, S., Rosenberg, S. A., Eds, J. B. Cancer: Principles and Practice of Oncology Update, 1989, 3: pp1-12, Lippincoft: Philadephia; Monks, A., Scudiero, D., Skehan, P., Shoemaker, R., Paull, K., Vistica, D., Hose, C., Langley, J., Cronise, P., Vaigro-Wolff, A., Gray-Goodrich, M., Campbell, H., Mayo, J., Boyd, M. Feasibility of a high-flux anticancer drug screen using a diverse panel of cultured human tumor cell lines. J. Natl. Cancer Inst. 1991, 83, 757-66.] […]

The subject of a further test is HGC2998 (colon cancer). Nature of the test: Growth inhibition in human cancer cell line panel, HGC2998. The format is cell-based. Conditions: 48 hr, SRB. The method, then:
Compound IX-8 was evaluated growth inhibition activities against a panel of 39 human cancer cell lines including Human breast cancer MDA-MB-231 and the following human cancer cell lines were generously distributed by the National Cancer Institute (Frederick, Md.): lung cancer, NCI-H23, NCI-H226, NCI-H522, NCI-H460, A-549, DMS273 and DMS114; colon cancer, HGC-2998, KM-12, HT-29, HCT-15, and HCT-116; ovarian cancer, OVCAR-3, OVCAR-4, OVCAR-5, OVCAR-8, and SKOV-3; breast cancer, MCF-7; renal cancer, RXF-631L and ACHN; melanoma, LOX-IMVI; brain tumor, U251, SF-295, SF-539, SF-268, SNB-75, and SNB-78, and prostate cancer, DU-145 and PC-3. […]
The details of measuring cell growth inhibition are described elsewhere [Monks, A., Scudiero, D., Skehan, P., Shoemaker, R., Paull, K., Vistica, D., Hose, C., Langley, J., Cronise, P., Vaigro-Wolff, A., Gray-Goodrich, M., Campbell, H., Mayo, J., Boyd, M. Feasibility of a high-flux anticancer drug screen using a diverse panel of cultured human tumor cell lines. […] Then, the cell growth was determined according to the Sulforhodamine B assay, described by Skehan et al [Skehan, P., Storeng, R., Scudiero, D., Monks, A., McMahon, J., Vistica, D., Warren, J. T., Bokesch, H., Kenney, S., Boyd, M. R. New calorimetric cytotoxicity assay for anticancer-drug screening. […]

`COc1ccc2[nH]c(-c3cccc(F)c3)c(C(=O)O)c(=O)c2c1` [IX-8, 3′-Fluoro-6-methoxy-2-phenyl-4-quinolone-3-carboxylic acid]: the “ED50 HOS” value in the test on bone (HOS) cell line is 0.14 µg/mL (≈ 0.447 µM). Further, the concentration for 50% growth inhibition (GI50) in the test with HGC2998 (colon cancer) was 138 nM.
